According to patent US20110294873A1, “Gene Transfer Vectors Comprising At Least One Isolated DNA Molecule Having Insulator Or Boundary Properties And Methods To Identify The Same” (UNIVERSITÉ DE LAUSANNE, priority 2008, published 2011):
Entries after “also recorded” stand apart in the source; their conditions may differ.

B1: 12×CTCF: 12 copies of consensus CTCF binding sites with random spacers, 472 bp (nucleic acid)
DNA: GCGATGCCGCCCCCTGGTGGCCAGTAATCGCAAGGCTAAGTAATCACTGCCCCCTGGTGGCCGCCAGTCTGATACGCGTTTTACAACCGCCCCCTGGTGGCCGTGGGAGACATCTAGTGCACGAGAGTGCCCCCTGGTGGCCAAACCGTAGCCTAGGCATATTGTACTGCCCCCTGGTGGCCGGCAATATGGCTAGCGATGACTCGGCGCCCCCTGGTGGCCACTACGTTCTAGTGGCGATGCCGCCCCCTGGTGGCCAGTAATCGCAAGGCTAAGTAATCACTGCCCCCTGGTGGCCGCCAGTCTGATACGCGTTTTACAACCGCCCCCTGGTGGCCGTGGGAGACATCTAGTGCACGAGAGTGCCCCCTGGTGGCCAAACCGTAGCCTAGGCATATTGTACTGCCCCCTGGTGGCCGGCAATATGGCTAGCGATGACTCGGCGCCCCCTGGTGGCCACTACGTTCTAGTG
modifications: Consensus binding sites for CTCF (12copies)
B2: CTCF cons: 6 repeats of the consensus CTCF binding site separated by random linkers (nucleic acid)
DNA: GCGATGCCGCCCCCTGGTGGCCAGTAATCGCAAGGCTAAGTAATCACTGCCCCCTGGTGGCCGCCAGTCTGATACGCGTTTTACAACCGCCCCCTGGTGGCCGTGGGAGACATCTAGTGCACGAGAGTGCCCCCTGGTGGCCAAACCGTAGCCTAGGCATATTGTACTGCCCCCTGGTGGCCGGCAATATGGCTAGCGATGACTCGGCGCCCCCTGGTGGCCACTACGTTCTAGTG
modifications: CTCF consensus binding sites

What was measured:
Type in all cases: cell-based, human
[1] = system: telomeric transgenes (GFP, DsRed) in HeLa cells; assay: Telomeric gene silencing quantitative assay (GFP/DsRed reporters, cytofluorometry); settings: for transgene expression at telomeric positions: HeLa telomeric clones, agent in culture medium (TSA 1 μM 48 h, NaB 1 mM one week, 5azadC 3 μM 48 h, BrdU 50 μM one week)
Method: The minimal CMV promoter and EGFP and DsRed coding sequences (Clontech) were PCR amplified and cloned in both orientations in pBS-SK2 containing telomeric repeats, kindly provided by J. Baur (2). Puromycin resistance gene expressed from the CAG promoter was inserted upstream of DsRed, in a telomere-distal position. Four Gal4 binding site were introduced between EGFP and DsRed expression cassettes at AscI and BamHI restriction sites, yielding pGE1min-Gal and pGE2 min-Gal. Control plasmids were generated by deletion of the telomeric repeats. Plasmids encoding the Gal DNA binding domain alone (pCD-Gal-DBD), or fused to the CTF1 Proline rich (pCMV-Gal-Pro) or to the VP16 (pCMV-Gal-VP16) transcriptional activation domains were as described previously (31). Plasmids encoding Gal-CTF1 fusion mutations were previously described by Alevizopoulos et al. (1995). Plasmids used to generate stable populations expressing Gal4 derivatives were obtained by cloning Gal-fusion genes or the BFP gene in an expression vector carrying the MAR 1-68 and the SV40 promoter (15).
HeLa cells (Clontech) were cultivated at 37° C. and 5% CO2 in DMEM-F12 with 10% fetal bovine serum (Gibco). Histone deacetylation or DNA methylation studies were performed by supplementing the cell culture medium with either 1 μM of Trichostatin A (TSA, Wako) for 48 h, 1 mM of Sodium butyrate (Sigma) for one week, 3 μM of 5-aza-2′-deoxycytidine (5azadC, Sigma) for 48 h, or 50 μM of Bromo-deoxyuridine (BrdU, Applichem) for one week. Transfections were performed using the Fugene 6 transfection reagent following instructions from the manufacturer (Roche). Stable clones were obtained by transfection of linearized plasmids pGEmin-Gal, pGE2 min-Gal or their respective controls. Cells were selected with 2 μg/mL of puromycin for three weeks, and all analyses were performed at least two weeks after the end of selection, to allow for the silencing of the telomeric locus. Transient transfections were performed by co-transfection of a Gal-fusion encoding plasmid and a BFP encoding plasmid at a molar ratio of 9:1. Cytofluorometric assays of the fluorescent reporter proteins were performed 48 h later. Stable populations expressing Gal-DBD/Gal-Pro were obtained by co-transfecting the Gal-fusion expression plasmid, a BFP-encoding plasmid, and a Zeocin resistance plasmid at 45:45:10 weight ratio. Zeocin resistant cells displaying high BFP levels were sorted twice, and the amount of zeocin was increased to 1800 μg/mL with increments of 200 μg/mL, to ensure consistent and elevated levels of fusion protein expression. Fluorescence in situ hybridization (FISH) was performed as described previously (12, 15) using two colors labeling of the reporter plasmids and of the telomeric repeats.
In order to analyze both telomere-insulated and non-insulated genes co-integrated at the same telomeric locus, we generated the reporter plasmids shown in FIG. 17A. Reporter vectors consist of the green fluorescent protein (GFP) and red fluorescent protein (DsRed) coding sequences placed on either side of four DNA binding sites for the yeast GAL4 protein. Each reporter gene was placed under the control of a minimal CMV promoter, in an orientation mediating either convergent or divergent directions of transcription. An antibiotic resistance gene was placed adjacent to DsRed, while telomeric (TTAGGG)n repeats were placed next to the GFP expression cassette. […] These constructs were transfected, and antibiotic-resistant cells having stably integrated the transgenes in their genome were selected and sorted into monoclonal populations. […] Fluorescence in situ hybridization (FISH) analysis indicated a telomeric or subtelomeric transgene position for all retained clones (see FIG. 6 in the supplemental material). […]

[2] = system: histones H3, H4, H2A.Z on GFP and DsRed sequences in HeLa clones; assay: Chromatin immunoprecipitation of histone modifications on telomeric transgenes; settings: clone B09
Method: Antibodies against acetylated H3 (06-599), acetylated H4 (06-866) and trimethylated H3K9 (07-442) were obtained from Upstate biotechnology. Antibody against H2A.Z (ab4174) was purchased from Abcam. HeLa cells were harvested at a confluence of 90% and cross-linked with 1% formaldehyde for 4 min. After lysis of the nuclei, chromatin was sonicated to obtain fragments of ˜1000 pb and digested with BamHI. The chromatin solution was diluted to a volume of 300 μL in a buffer containing 200 mM HEPES, 2M NaCl, 20 mM EDTA, 0.1% NaDoc, 1% Triton X-100, 1 mg/mL BSA. Chromatin fragments were precleared 30 min with 10 μL rProtein A Sepharose (Amersham Biosciences) and supernatants were incubated at 4° C. overnight with 5 μL of antibody. Immunoprecipitated complexes were incubated with 10 μL rProtein A Sepharose and pellets were washed 3 times with IP buffer (20 mM HEPES, 0.2M NaCl, 2 mM EDTA, 0.1% NaDoc, 1% Triton X-100). Immunoprecipitated complexes were eluted in 100 mM Tris/HCl, 1% SDS and cross-links were reversed at 65° C. for 1 hour. Precipitated DNAs were eluted in 50 μL TE.
Quantitative PCR was performed on 7700 Sequence detector (Applied Biosystems) using SYBR Green reagent (Eurogentec). Chromatin immuno-precipitation samples and chromatin input were diluted 10 fold before analysis. […]

[3] = system: Fr-MuLV LTR enhancer acting on GFP gene in HeLa cells; assay: Quantitative double-reporter (BFP/GFP) enhancer-blocking assay, transient transfection; settings: HeLa transient, 48 hours, GFP/BFP ratio, compared to full-length cHS4
Source text: Panel A is a schematic illustration of the retroviral-mediated integration of a transgene expression cassette into a host cell genome upon viral infection. This cassette contains a transgene under the control of a retroviral LTR and is flanked by a genetic insulator element shielding a cellular gene at the site of integration from LTR-mediated up-regulation. In order to mimic events leading to gene transfer-mediated insertional activation in a plasmid-based assay system (B), plasmid constructs were designed containing a BFP gene under the control of a viral LTR enhancer-promoter and a GFP gene under the control of a minimal CMV promoter (P). Inserting a potent insulator in between the two reporter genes should prevent the expression over-activation of the GFP gene without affecting the BFP expression, as it should shield cellular gene from up-regulation at the site of integration of a viral vector without interfering with transgene expression. In addition, in order to insulate the whole construct itself either from the viral enhancer bi-directional activation in transient transfection (circular form of the plasmid) or from a neighboring cellular enhancer at the site of integration in stable transfection (integrated linearized form of the plasmid), a copy of the cHS4 insulator is inserted at the edge of the reporter gene expression cassettes
The plasmid constructs described in FIG. 26B were obtained as follows. The EGFP gene expressed from a minimal CMV promoter was PCR amplified from a pcDNA3-EGFP plasmid excluding the CMV enhancer. The EBFP gene was PCR amplified from the pEBFP-NI plasmid (Clontech). Both reporters were subcloned in a pBS2-SKP (Stratagene). The Fr-MuLV LTR was inserted upstream from the EBFP gene such that transcription from the LTR is directed towards EBFP, and a copy of the 1.2 kb cHS4 was inserted downstream from the EGFP gene. Insulator sequences were inserted between the Fr-MuLV LTR and the minimal CMV promoter driving GFP expression. The 250 bp cHS4 core was PCR amplified from the full-length cHS4 (GenBank accession number: U78775.2, amplification from position 1 to 250). A series of neutral DNA spacers of various lengths were PCR amplified from the mouse utrophin cDNA (GenBank accession number: BC062163.1, amplifications form position 355 to positions 605 and 1555).
HeLa cells were transfected using FuGENE 6 reagent (Roche Diagnostics) according to the manufacturer's recommendations. Equimolar amounts of the different plasmids were transfected in each experiment (using the pBS2-SKP backbone plasmid as carrier). Circular plasmids were used for transient transfections, while plasmids were linearized before stable transfections. To obtain stable populations, the reporter constructs were co-transfected with a puromycin resistance-encoding plasmid (pPUR, Clontech) with a molar ratio of 10:1 and cells were grown in Dulbecco's modified Eagle medium containing 10% fetal bovine serum and 0.5 μg/mL puromycin (all from GIBCO). Fluorescence analyses were acquired on the FACS Cyan (Dakocytomation) with the settings of 450 V on the SSC channel, 340 V for the GFP and 450 V for the BFP. Data analysis of the double-reporter assay consisted in normalizing the GFP fluorescence to the BFP fluorescence for each cell and averaging these values over the total cell population. FACS analyses were performed 48 hours after transfection for transient expression and after 2 to 3 weeks of selection post-transfection for stable expression. Data processing was performed using the FlowJo software.
Therefore, we designed a two-reporter gene assay whereby the potency of enhancer-blocker insulators can be quantified, and in which polar insulating activities can be distinguished from enhancer inhibition or from global gene silencing effects. […]

Molecule | transgene expression at telomeric positions [1] | enhancer-blocking (insulator) activity [3] | further results
Nc1ncn([C@H]2C[C@H](O)[C@@H](CO)O2)c(=O)n1 [5azadC, 5-aza-2′-deoxycytidine] | little effect on transgene expression | – | –
O=c1[nH]c(=O)n([C@H]2C[C@H](O)[C@@H](CO)O2)cc1Br [BrdU, Bromo-deoxyuridine] | increase in expression of the reporter genes, but to a lesser extent than that noted with TSA | – | –
CCCC(=O)[O-].[Na+] [NaB, Sodium butyrate] | lower unsilencing effects in some clones | – | telomeric gene expression ([1]; clone D17): little effect on telomeric gene expression
CC(/C=C/C(=O)NO)=C\[C@@H](C)C(=O)c1ccc(N(C)C)cc1 [TSA, Trichostatin A] | strongly increase transgene expression | – | H3K9Me3 on DsRed and GFP sequences (ChIP) [2]: increase; H3 and H4 acetylation on DsRed and GFP sequences (ChIP) [2]: increase of the acetylation of both DsRed and GFP
CTF1: native transcription factor of the CTF/NF1 family, transiently expressed | – | – | reporter gene activation upon transient CTF1 expression ([1]; reporter with seven CTF/NF1 binding sites, internal chromosomal location): commensurate activation occurred for both reporter genes; boundary effect upon transient CTF1 expression ([1]; reporter with seven CTF/NF1 binding sites, telomeric transgenes): boundary effect was observed
One binding site (20 bp element): single CTF/NF1 binding site from adenovirus type II origin of replication, 20 bp (DNA TTGGCAACGTGCCATAAGCA; listed as DNA, chemistry not given here) | – | responsible for most of the effect | enhancer-blocking (insulator) activity ([3]; listed as single binding site of 20 bp): approximately half of the insulating effect seen with the full-length cHS4
B1 | – | as potent as the complete 1.2 kb cHS4 element; also recorded: comparable to the one of the full length cHS4; also recorded: fully reproduced the insulation effect; also recorded: able to reconstitute the enhancer blocking activity mediated by the full-length 1.2 kb cHS4 | –
B2 | – | already showed significant activity | enhancer-blocking (insulator) activity ([3]; listed as Consensus binding sites for CTCF): able to show the same activity, with no significant improvement
